Data published in US20250136576A1, “Heterocyclic Compounds and Uses Thereof” (ACEA Therapeutics, Inc., priority 2021, published 2025).
Read-outs that look alike come from different tables or passages of the source.

System: KM12-luc cells
Experiment: Cell proliferation and growth inhibition assay (CCK-8) in KM12-luc
Format: cell-based
Conditions: KM12-luc cells, treated with test compounds for 72 hrs, CCK-8 viability, read-out: NTRK IC50 in KM12-luc
How it was run: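 IC50 values were fitted by sigmoidal dose-response non-linear regression of CCK-8 OD450 absorbance after 1-4 hrs with reagent. Culture media were IMDM for MV-4-11, RPMI 1640 for H1975 and DMEM for KM12-luc, each with 10% FBS at 37 °C, 5% CO2.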

SMILES | IC50 (KM12-Luc, 72 h) | IC50
CN1CCN(c2ccc(C(=O)Nc3c[nH]c4ccc(Nc5cc(F)cc(F)c5)cc34)c(NC3CCOCC3)c2)CC1 [Compound 497, N-(5-((3,5-difluorophenyl)amino)-1H-indol-3-yl)-4-(4-methylpiperazin-1-yl)-2-((tetrahydro-2H-pyran-4-yl)amino)benzamide] | 4030 nM | –
CN(C)CCN(C)c1ccc(C(=O)Nc2c[nH]c3ccc(Nc4cc(F)cc(F)c4)cc23)c(NC2CCOCC2)c1 [Compound 500, N-(5-((3,5-difluorophenyl)amino)-1H-indol-3-yl)-4-((2-(dimethylamino)ethyl)(methyl)amino)-2-((tetrahydro-2H-pyran-4-yl)amino)benzamide] | 3570 nM | –
COCCCN(C)c1cc(N2CCN(C)CC2)ccc1C(=O)Nc1c[nH]c2ccc(Nc3cc(F)cc(F)c3)cc12 [Compound 501, N-(5-((3,5-difluorophenyl)amino)-1H-indol-3-yl)-2-((3-methoxypropyl)(methyl)amino)-4-(4-methylpiperazin-1-yl)benzamide] | > 1000 nM | –
CN1CCN(c2ccc(C(=O)Nc3c[nH]c4cnc(Oc5cc(F)cc(F)c5)nc34)c(NC3CCOCC3)c2)CC1 [Compound 503, N-(2-(3,5-difluorophenoxy)-5H-pyrrolo[3,2-d]pyrimidin-7-yl)-4-(4-methylpiperazin-1-yl)-2-((tetrahydro-2H-pyran-4-yl)amino)benzamide] | 3640 nM | –
CN1CCN(c2ccc(C(=O)Nc3c[nH]c4ccc(Cc5cc(F)cc(F)c5)cc34)c(NC3CCOCC3)c2)CC1 [Compound 505, N-(5-(3,5-difluorobenzyl)-1H-indol-3-yl)-4-(4-methylpiperazin-1-yl)-2-((tetrahydro-2H-pyran-4-yl)amino)benzamide] | > 1000 nM | –
CN(C)CCN(C)c1ccc(C(=O)Nc2c[nH]c3ccc(Cc4cc(F)cc(F)c4)cc23)c(NC2CCOCC2)c1 [Compound 507, N-(5-(3,5-difluorobenzyl)-1H-indol-3-yl)-4-(2-(dimethylamino)ethyl)(methylamino)-2-((tetrahydro-2H-pyran-4-yl)amino) benzamide] | > 1000 nM | –
COCCCN(C)c1cc(N2CCN(C)CC2)ccc1C(=O)Nc1c[nH]c2ccc(Cc3cc(F)cc(F)c3)cc12 [Compound 508, N-(5-(3,5-difluorobenzyl)-1H-indol-3-yl)-2-((3-methoxypropyl)(methyl)amino)-4-(4-methylpiperazin-1-yl)benzamide] | > 1000 nM | –
COc1cnc(Nc2ccc(N3CC[C@@H](N(C)C)C3)c(NC(C)=O)c2)nc1-c1c[nH]c2c(F)cccc12 [Compound R-280, (R)—N-(2-(3-(dimethylamino)pyrrolidin-1-yl)-5-((4-(7-fluoro-1H-indol-3-yl)-5-methoxypyrimidin-2-yl)amino)phenyl)acetamide] | 15.6 nM | –
COc1cnc(Nc2ccc(N3CC[C@@H](N(C)C)C3)c(NC(C)=O)c2)nc1-c1cn(C)c2c(F)cccc12 [Compound R-281, (R)—N-(2-(3-(dimethylamino)pyrrolidin-1-yl)-5-((4-(7-fluoro-1-methyl-1H-indol-3-yl)-5-methoxypyrimidin-2-yl)amino)phenyl)acetamide] | 121 nM | –
COc1cnc(Nc2ccc(N3CC[C@@H](N(C)C)C3)c(NC(C)=O)c2)nc1-c1c[nH]c2c(OC)cccc12 [Compound R-288, (R)—N-(2-(3-(dimethylamino)pyrrolidin-1-yl)-5-((5-methoxy-4-(7-methoxy-1H-indol-3-yl)pyrimidin-2-yl)amino)phenyl)acetamide] | 15.5 nM | –
CN(C)[C@@H]1CCN(c2ccc(Nc3ncc(C(F)(F)F)c(-c4c[nH]c5c(F)cccc45)n3)cc2N)C1 [Compound R-345, (R)-4-(3-(dimethylamino)pyrrolidin-1-yl)-N^1-(4-(7-fluoro-1H-indol-3-yl)-5-(trifluoromethyl)pyrimidin-2-yl)benzene-1,3-diamine] | 6.2 nM | –
CC(=O)Nc1cc(Nc2ncc(C(F)(F)F)c(-c3cn(C)c4c(F)cccc34)n2)ccc1N1CC[C@@H](N(C)C)C1 [Compound R-353, (R)—N-(2-(3-(dimethylamino)pyrrolidin-1-yl)-5-((4-(7-fluoro-1-methyl-1H-indol-3-yl)-5-(trifluoromethyl)pyrimidin-2-yl)amino)phenyl)acetamide] | 64.3 nM | –
CN(C)[C@@H]1CCN(c2ccc(Nc3ncc(C(F)(F)F)c(-c4cn(C)c5c(F)cccc45)n3)cc2N)C1 [Compound R-354, (R)-4-(3-(dimethylamino)pyrrolidin-1-yl)-N^1-(4-(7-fluoro-1-methyl-1H-indol-3-yl)-5-(trifluoromethyl)pyrimidin-2-yl)benzene-1,3-diamine] | 69.1 nM | –
Cc1cccc2c(-c3nc(Nc4ccc(N5CC[C@@H](N(C)C)C5)c(N)c4)ncc3C(F)(F)F)c[nH]c12 [Compound R-367, (R)-4-(3-(dimethylamino)pyrrolidin-1-yl)-N^1-(4-(7-methyl-1H-indol-3-yl)-5-(trifluoromethyl)pyrimidin-2-yl)benzene-1,3-diamine] | 5.7 nM | –
COc1cccc2c(-c3nc(Nc4ccc(N5CC[C@@H](N(C)C)C5)c(N)c4)ncc3Cl)cn(C)c12 [Compound R-414, (R)—N^1-(5-chloro-4-(7-methoxy-1-methyl-1H-indol-3-yl)pyrimidin-2-yl)-4-(3-(dimethylamino)pyrrolidin-1-yl)benzene-1,3-diamine] | – | 12.4 nM
CC(=O)Nc1cc(Nc2ncc(Cl)c(-c3cn(C)c4c(F)cccc34)n2)ccc1N1CC[C@@H](N(C)C)C1 [Compound R-415, (R)—N-(5-((5-chloro-4-(7-fluoro-1-methyl-1H-indol-3-yl)pyrimidin-2-yl)amino)-2-(3-(dimethylamino)pyrrolidin-1-yl)phenyl)acetamide] | 66.7 nM | –
COc1cccc2c(-c3nc(Nc4ccc(N5CC[C@@H](N(C)C)C5)c(N)c4)ncc3Cl)cn(C)c12 [Compound R-420, (R)—N^1-(5-chloro-4-(7-methoxy-1-methyl-1H-indol-3-yl)pyrimidin-2-yl)-4-(3-(dimethylamino)pyrrolidin-1-yl)benzene-1,3-diamine] | – | 72 nM
Cc1cccc2c(-c3nc(Nc4ccc(N5CC[C@@H](N(C)C)C5)c(N)c4)ncc3Cl)c[nH]c12 [Compound R-425, (R)—N^1-(5-chloro-4-(7-methyl-1H-indol-3-yl)pyrimidin-2-yl)-4-(3-(dimethylamino)pyrrolidin-1-yl)benzene-1,3-diamine] | 11.3 nM | –
Cc1cccc2c(-c3nc(Nc4ccc(N5CC[C@@H](N(C)C)C5)c(N)c4)ncc3Cl)cn(C)c12 [Compound R-431, (R)—N^1-(5-chloro-4-(1,7-dimethyl-1H-indol-3-yl)pyrimidin-2-yl)-4-(3-(dimethylamino)pyrrolidin-1-yl)benzene-1,3-diamine] | 31.8 nM | –
CC(=O)Nc1cc(Nc2ncc(Cl)c(-c3cn(C)c4c(C)cccc34)n2)ccc1N1CC[C@@H](N(C)C)C1 [Compound R-432, (R)—N-(5-((5-chloro-4-(1,7-dimethyl-1H-indol-3-yl)pyrimidin-2-yl)amino)-2-(3-(dimethylamino)pyrrolidin-1-yl)phenyl)acetamide] | 130 nM | –
COc1cccc2c(-c3nc(Nc4ccc(N5CC[C@@H](N(C)C)C5)c(N)c4)ncc3Cl)cn(C)c12 [Compound R-439, (R)—N^1-(5-chloro-4-(7-methoxy-1-methyl-1H-indol-3-yl)pyrimidin-2-yl)-4-(3-(dimethylamino)pyrrolidin-1-yl)benzene-1,3-diamine] | – | 128 nM
